# Laboratory results reported in US8252832B2, “Kinesin inhibitors as cancer therapeutics” (Novartis AG, priority 2007, dated 2012).
# Tests used:
# Format in all cases: cell-based
# tumor cell lines = assay: Inhibition of cellular proliferation, CellTiter-Glo, 72 hours, all cell lines tested; conditions: 72 hours of continuous compound exposure
# From the text: Cell lines used were as follows: HCT-116 (National Cancer Institute's DCTF Tumor Repository, catalog #NCI-502568, Rockville, Md.), HCT-15 (National Cancer Institute's DCTF Tumor Repository, catalog#NCI-502711, Rockville, Md. available from American Type Tissue Collection, catalog #CLL-225), KB-3-1 (available from DSMZ, Deutsche Sammlung von Mikroorganismen und Zellkulturen GmbH (German Collection of Microorganisms and Cell Cultures—catalog number ACC 158), KB-V1 (available from DSMZ—catalog number ACC 149), AGS (available from American Type Culture Collection, Manassas Va., catalog number CRL-1739™), N87 (available from American Type Culture Collection, Manassas Va., catalog number CRL-5822), Hel92.1.7 (available from American Type Culture Collection, Manassas Va., catalog number TIB 180), K562 (available from American Type Culture Collection, Manassas Va., catalog number CRL-243™), MV4; 11 (American Tissue Culture Collection, Manassas Va., catalog number CRL-9591) and U937 (available from American Type Culture Collection, Manassas Va., catalog number CRL-1593.2).
# Cells were plated in 96-well plates at densities of about 500 cells per well of a 96-well plate and allowed to grow for 24 hours. […] The amount of luminescence was determined for each well using a Wallac Trilux plate reader, which correlates with the number of cells per well. […]
# Colo-205 = assay: CTG (CellTiter-Glo) screening assay; conditions: Homo sapiens
# From the text: (§1) Identification of tumor types that are the most sensitive to the KSP inhibitors of the present invention can be accomplished using an unbiased approach that uses several cell-based assays. The assays chosen were as follows: • CellTiter-Glo®. This is an assay designed to measure ATP concentration in a cell culture, and can be correlated to cell number. Briefly CellTiter-Glo® (Promega Corporation) is a homogeneous method using the single CellTiter-Glo® reagent to detect ATP wherein ATP in the assay drives the activity of a thermostable luciferase to create a luminescent signal which can then be measured and correlated with the number of viable cells. Briefly, for adherent cells, 1,000 to 5,000 cells/well were plated in 96-well plates (100 μl/well) and let to adhere for 24 hours before being treated with drug. For non-adherent cells, 1,000 to 10,000 cells/well were plated in 96-well plates (100 μl/well) and immediately treated with drug. Drug dilutions were prepared in DMSO at 1000 times the final concentration. These dilutions were then diluted 1/100 in growth media before being added to the cells (11 μl/well) to achieve the desired final concentration. After 48 h in a 37° C. tissue culture incubator, the plates were processed for the CellTiter-Glo®assay according to the manufacturer's instructions. Protocol for a 72 hour cell proliferation assay: The 72 hour assay was performed the same way as the 48 hour assay except for the following modifications: For adherent cells, 500 to 5,000 cells/well were plated in 96-well plates (90 μl/well cell growth media) and left to adhere for 24 hours before being treated with drug. For non-adherent cells, 1,000 to 10,000 cells/well were plated in 96-well plates (90 μl/well cell growth media) and immediately treated with drug. Data values presented represent the concentration of test compound required for a 50% reduction in growth. • LDH release. The Cytotoxicity Detection KitPLUS (LDH) assay (Roche Diagnostics, Manheim, Germany) measures the amount of LDH released in the media by dying cells; LDH catalyzes the conversion of lactate into pyruvate. The enzymatic reaction is coupled to a chemical reaction that uses a tetrazolium salt to form a formazan that is red and can be detected by its absorbance at 490 nm. This assay measures the amount of cell death after drug treatment. Cells were plated at 10,000 cells/well in 96-well plates (100 μl/well). Adherent cells were let to adhere for 24 hours before being treated with drug, whereas non-adherent cells were immediately treated with drug. Drug dilutions were prepared in DMSO at 1000 times the final concentration. These dilutions were then diluted 1/100 in growth media before being added to the cells (11 μl/well) to achieve the desired final concentration. After 48 h in a 37° C. tissue culture incubator, the plates were processed for the Cytotoxicity Detection KitPLUS (LDH) assay according to the manufacturer's instructions. The media only values were subtracted from all the data points before analysis. Data values presented correspond to the compound concentration wherein LDH output is at half maximal level. • Caspase-Glo® 3/7. The Caspase-Glo® 3/7 Assay (Promega Corporation) is a homogeneous luminescent assay that measures caspase-3/7 activities. The assay provides a proluminescent caspase-3/7 DEVD-aminoluciferin substrate and a thermostable luciferase in a reagent optimized for caspase-3/7 activity, luciferase activity and cell lysis. Adding the single Caspase-Glo® 3/7 Reagent results in cell lysis, followed by caspase cleavage of the substrate. This liberates free aminoluciferin, which is consumed by the luciferase, generating a luminescent signal. The signal is proportional to caspase-3/7 activity. Data values presented correspond to the compound concentration wherein caspase 3/7 activity is at half maximal level.
# HT29 = assay: CTG (CellTiter-Glo) screening assay; conditions: Homo sapiens, HT-29
# From the text: as §1
# MV4; 11 = assay: CTG (CellTiter-Glo) screening assay; conditions: Homo sapiens
# From the text: as §1
# T47-D = assay: CTG (CellTiter-Glo) screening assay; conditions: Homo sapiens, T47D
# From the text: as §1
structure (smiles),measurement,setting,value
CC(C)(C)[C@H](c1nc(-c2cc(F)ccc2F)cn1Cc1ccccc1)N(CC[C@H](N)CF)C(=O)CO [Compound IIa],GI50,tumor cell lines,0.1 to 6.5 nM
same,GI50,"Colo-205; Colo-205, 24 h",> 5 nM
same,GI50,"Colo-205; Colo-205, 48 h",0.18 nM
same,GI50,"Colo-205; Colo-205, 72 h",0.19 nM
same,GI50,"HT29; HT29, 24 h",> 5 nM
same,GI50,"HT29; HT29, 48 h",> 5 nM
same,GI50,"HT29; HT29, 72 h",0.21 nM
same,GI50,"MV4; 11; MV4;11, 24 h",0.05 nM
same,GI50,"MV4; 11; MV4;11, 48 h",0.04 nM
same,GI50,"MV4; 11; MV4;11, 72 h",0.04 nM
same,GI50,T47-D; 24 h,> 5 nM
same,GI50,T47-D; 48 h,> 5 nM
same,GI50,T47-D; 72 h,0.45 nM
